{
  "source": "patent EP4745124A1",
  "about": "“NAPHTHALIMIDE-BASED CORONAVIRUS PAPAIN-LIKE PROTEASE INHIBITOR” (Guangzhou National Laboratory, priority 2023, dated 2025)",
  "data": [
    {"molecular_target": "T1, SARS-CoV-2 PL^Pro (Severe acute respiratory syndrome coronavirus 2, UniProt P0DTD1)", "T1 construct": "SARS-CoV-2 PL^Pro catalytic domain (746-1060); made in house", "test": "biochemical", "conditions": "not given", "units": {"IC50": "nM"}, "values": [
      {"smiles": "Cc1ccc(N2CCNC3(CC3)C2)cc1C(=O)NC1(c2ccc3c4c(cccc24)C(=O)N3C)CC1", "note": "[Compound P12, 2-Methyl-N-(1-(1-methyl-2-oxo-1,2-dihydrobenzo[cd]indol-6-yl)cyclopropyl)-5-(4,7-diazaspiro[2,5]octan-7-yl) benzamide]", "IC50": "40 to 100"},
      {"smiles": "Cc1ccc(N2CC3CC(C2)N3C)cc1C(=O)NC1(c2ccc3c4c(cccc24)C(=O)N3C(C)C)CC1", "note": "[Compound P21, N-(1-(1-isopropyl-2-oxo-1,2-dihydrobenzo[cd]indol-6-yl)cyclopropyl)-2-methyl-5-(6-methyl-3,6-diazabicyclo[3.1.1]heptan-3-yl)benzamide]", "IC50": "< 40"},
      {"smiles": "Cc1ccc(N2C3CCC2CNC3)cc1C(=O)NC1(c2ccc3c4c(cccc24)C(=O)N3C)CC1", "note": "[Compound P6, 5-(3,8-diazabicyclo[3.2.1]octan-8-yl)-2-methyl-N-(1-(1-methyl-2-oxo-1,2-dihydrobenzo[cd]indol-6-yl)cyclopropyl)ben zamide]", "IC50": "< 40"}
    ]},
    {"molecular_target": "T1, SARS-CoV-2 PL^Pro", "test": "biochemical", "conditions": "SARS-CoV-2 PLPro catalytic domain (746-1060), 10 minutes pre-incubation; read-out: PLpro IC50", "units": {"IC50": "nM"}, "values": [
      {"smiles": "Cc1ccc(N2CC(N3CCN(C)CC3)C2)cc1C(=O)NC1(c2ccc3c4c(cccc24)C(=O)N3C)CC1", "note": "[Compound P23, 2-Methyl-N-(1-(1-methyl-2-oxo-1,2-dihydrobenzo[cd]indol-6-yl)cyclopropyl)-5-(3-(4-methylpiperazin-1-yl)azetidin-1-yl)benzamide]", "IC50": "100 to 1000"},
      {"smiles": "Cc1ccc(C2CCN(C)CC2)cc1C(=O)NC1(c2ccc3c4c(cccc24)C(=O)N3C)CC1", "note": "[Compound P22, 2-methyl-N-(1-(1-methyl-2-oxo-1,2-dihydrobenzo[cd]indol-6-yl)cyclopropyl)-5-(1-methylpiperidin-4-yl)benzamide]", "IC50": "40 to 100"},
      {"smiles": "Cc1ccc(N2CC(N3CCC(O)C3)C2)cc1C(=O)NC1(c2ccc3c4c(cccc24)C(=O)N3C)CC1", "note": "(centres unmarked) [Compound P43, 5-(3-(3-hydroxypyrrolidin-1-yl)azetidin-1-yl)-2-methyl-N-(1-(1-methyl-2-oxo-1,2-dihydrobenzo[cd]indol-6-yl)cyclopropyl)benzamide]", "IC50": "< 40"},
      {"smiles": "Cc1ccc(N2CC(N3CCN(C)C(=O)C3)C2)cc1C(=O)NC1(c2ccc3c4c(cccc24)C(=O)N3C)CC1", "note": "[Compound P44, 2-Methyl-N-(1-(1-methyl-2-oxo-1,2-dihydrobenzo[cd]indol-6-yl)cyclopropyl)-5-(3-(4-methyl-3-oxopiperazin-1-yl)azetidin-1-yl)benzamide]", "IC50": "100 to 1000"},
      {"smiles": "Cc1ccc(N2CCN(CCN(C)C)CC2)cc1C(=O)NC1(c2ccc3c4c(cccc24)C(=O)N3C)CC1", "note": "[Compound P52, 5-(4-(2-(Dimethylamino)ethyl)piperazin-1-yl)-2-methyl-N-(1-(1-methyl-2-oxo-1,2-dihydrobenzo[cd]indol-6-yl)cyclopropyl)benzamide]", "IC50": "100 to 1000"},
      {"smiles": "Cc1ccc(C2CCNCC2)cc1C(=O)NC1(c2ccc3c4c(cccc24)C(=O)N3C)CC1", "note": "[Compound P4, 2-Methyl-N-(1-(1-methyl-2-oxo-1,2-dihydrobenzo[cd]indol-6-yl)cyclopropyl)-5-(piperidin-4-yl)benzamide]", "IC50": "40 to 100"},
      {"smiles": "Cc1ccc(N2CCN(CC(C)O)CC2)cc1C(=O)NC1(c2ccc3c4c(cccc24)C(=O)N3C)CC1", "note": "(centres unmarked) [Compound P41, 5-(4-(2-hydroxypropyl)piperazin-1-yl)-2-methyl-N-(1-(1-methyl-2-oxo-1,2-dihydrobenzo[cd]indol-6-yl)cyclopropyl)be nzamide]", "IC50": "< 40"},
      {"smiles": "Cc1ccc(N2CC(N3CCC(F)C3)C2)cc1C(=O)NC1(c2ccc3c4c(cccc24)C(=O)N3C)CC1", "note": "(centres unmarked) [Compound P30, 5-(3-(3-fluoropyrrolidin-1-yl)azetidin-1-yl)-2-methyl-N-(1-(1-methyl-2-oxo-1,2-dihydrobenzo[cd]indol-6-yl)cyclopropyl)benzamide]", "IC50": "< 40"},
      {"smiles": "Cc1ccc(N2CC(N3CCC(F)CC3)C2)cc1C(=O)NC1(c2ccc3c4c(cccc24)C(=O)N3C)CC1", "note": "[Compound P26, 5-(3-(4-fluoropiperidin-1-yl)azetidin-1-yl)-2-methyl-N-(1-(1-methyl-2-oxo-1,2-dihydrobenzo[cd]indol-6-yl)cyclopropyl)benzamide]", "IC50": "< 40"},
      {"smiles": "Cc1ccc(N2CCC(N3CCCCC3)C2)cc1C(=O)NC1(c2ccc3c4c(cccc24)C(=O)N3C)CC1", "note": "(centres unmarked) [Compound P50, 2-Methyl-N-(1-(1-methyl-2-oxo-1,2-dihydrobenzo[cd]indol-6-yl)cyclopropyl)-5-(3-(piperidin-1-yl)pyrrolidin-1-yl)benz amide]", "IC50": "< 40"},
      {"smiles": "Cc1ccc(N2CCC(N(C)C)CC2)cc1C(=O)NC1(c2ccc3c4c(cccc24)C(=O)N3C)CC1", "note": "[Compound P13, 5-(4-(Dimethylamino)piperidin-1-yl)-2-methyl-N-(1-(1-methyl-2-oxo-1,2-dihydrobenzo[cd]indol-6-yl)cyclopropyl)ben zamide]", "IC50": "100 to 1000"},
      {"smiles": "Cc1ccc(N2CC(N3C=CC(F)(F)C3)C2)cc1C(=O)NC1(c2ccc3c4c(cccc24)C(=O)N3C)CC1", "note": "[Compound P18, 5-(3-(3,3-difluoropyrrol-1-yl)azetidin-1-yl)-2-methyl-N-(1-(1-methyl-2-oxo-1,2-dihydrobenzo[cd]indol-6-yl)cyclopropyl)benzamide]", "IC50": "100 to 1000"},
      {"smiles": "Cc1ccc(N2CCNCC2C)cc1C(=O)NC1(c2ccc3c4c(cccc24)C(=O)N3C)CC1", "note": "(centres unmarked) [Compound P10, 2-Methyl-N-(1-(1-methyl-2-oxo-1,2-dihydrobenzo[cd]indol-6-yl)cyclopropyl)-5-(2-methylpiperazin-1-yl)benzamide]", "IC50": "100 to 1000"},
      {"smiles": "Cc1ccc(N2CCC(CN3CCOCC3)CC2)cc1C(=O)NC1(c2ccc3c4c(cccc24)C(=O)N3C)CC1", "note": "[Compound P38, 2-Methyl-N-(1-(1-methyl-2-oxo-1,2-dihydrobenzo[cd]indol-6-yl)cyclopropyl)-5-(4-(morpholinomethyl)piperidin-1-yl)b enzamide]", "IC50": "100 to 1000"},
      {"smiles": "CCN1CCN(c2ccc(C)c(C(=O)NC3(c4ccc5c6c(cccc46)C(=O)N5C)CC3)c2)C[C@@H]1C", "note": "[Compound P14, (S)-5-(4-ethyl-3-methylpiperazin-1-yl)-2-methyl-N-(1-(1-methyl-2-oxo-1,2-dihydrobenzo[cd]indol-6-yl)cyclopropyl)be nzamide]", "IC50": "< 40"},
      {"smiles": "Cc1ccc(N2CCC(N3CCCC3)C(F)(F)C2)cc1C(=O)NC1(c2ccc3c4c(cccc24)C(=O)N3C)CC1", "note": "(centres unmarked) [Compound P48, 5-(3,3-difluoro-4-(pyrrolidin-1-yl)piperidin-1-yl)-2-methyl-N-(1-(1-methyl-2-oxo-1,2-dihydrobenzo[cd]indol-6-yl)cyclopropyl)benzamide]", "IC50": "100 to 1000"},
      {"smiles": "Cc1ccc(N2CC(N3CCCCC3)C2)cc1C(=O)NC1(c2ccc3c4c(cccc24)C(=O)N3C)CC1", "note": "[Compound P24, 2-Methyl-N-(1-(1-methyl-2-oxo-1,2-dihydrobenzo[cd]indol-6-yl)cyclopropyl)-5-(3-(piperidin-1-yl)azetidin-1-yl)benzamide]", "IC50": "< 40"},
      {"smiles": "Cc1ccc(N2C[C@H]3C[C@@H]2CN3C)cc1C(=O)NC1(c2ccc3c4c(cccc24)C(=O)N3C)CC1", "note": "[Compound P40, 2-Methyl-N-(1-(1-methyl-2-oxo-1,2-dihydrobenzo[cd]indol-6-yl)cyclopropyl)-5-((1R,4R)-5-methyl-2,5-diazabicyclo[2. 2.1]heptan-2-yl)benzamide]", "IC50": "< 40"},
      {"smiles": "CCN1C(=O)c2cccc3c(C4(NC(=O)c5cc(N6CC(N7CCC(C)(O)CC7)C6)ccc5C)CC4)ccc1c23", "note": "[Compound P28, N-(1-(1-Ethyl-2-oxo-1,2-dihydrobenzo[cd]indol-6-yl)cyclopropyl)-5-(3-(4-hydroxy-4-methylpiperidin-1-yl)azetidin-1-yl)-2-methyl-benzamide]", "IC50": "< 40"},
      {"smiles": "Cc1ccc(N2CC(N3CCCC3)C2)cc1C(=O)NC1(c2ccc3c4c(cccc24)C(=O)N3C)CC1", "note": "[Compound P45, 2-methyl-N-(1-(1-methyl-2-oxo-1,2-dihydrobenzo[cd]indol-6-yl)cyclopropyl)-5-(3-(pyrrolidin-1-yl)azetidin-1-yl)benzamide]", "IC50": "< 40"},
      {"smiles": "Cc1ccc(N2CCN(CC(C)(C)O)CC2)cc1C(=O)NC1(c2ccc3c4c(cccc24)C(=O)N3C)CC1", "note": "[Compound P49, 5-(4-(2-Hydroxy-2-methylpropyl)piperazin-1-yl)-2-methyl-N-(1-(1-methyl-2-oxo-1,2-dihydrobenzo[cd]indol-6-yl)cyclopropyl)benzamide]", "IC50": "< 40"}
    ]},
    {"molecular_target": "T1, SARS-CoV-2 PL^Pro", "test": "biochemical", "conditions": "read-out: PLpro IC50", "units": {"IC50": "nM"}, "values": [
      {"smiles": "Cc1ccc(N2CCC(N3CCCC3)C2)cc1C(=O)NC1(c2ccc3c4c(cccc24)C(=O)N3C)CC1", "note": "(centres unmarked) [Compound P37, 5-([1,3'-dipyrrolidin]-1'-yl)-2-methyl-N-(1-(1-methyl-2-oxo-1,2-dihydrobenzo[cd]indol-6-yl)cyclopropyl)benzamide]", "IC50": "40 to 100"},
      {"smiles": "Cc1ccc(N2CC(N3CCC3)C2)cc1C(=O)NC1(c2ccc3c4c(cccc24)C(=O)N3C)CC1", "note": "[Compound P42, 5-([1,3'-diazetidin]-1'-yl)-2-methyl-N-(1-(1-methyl-2-oxo-1,2-dihydrobenzo[cd]indol-6-yl)cyclopropyl)benzamide]", "IC50": "< 40"},
      {"smiles": "Cc1ccc(N2CC(N3CCS(=O)(=O)CC3)C2)cc1C(=O)NC1(c2ccc3c4c(cccc24)C(=O)N3C)CC1", "note": "[Compound P35, 5-(3-(1,1-dioxothiomorpholin)azetidin-1-yl)-2-methyl-N-(1-(1-methyl-2-oxo-1,2-dihydrobenzo[cd]indol-6-yl)cyclopropyl)benzamide]", "IC50": "100 to 1000"},
      {"smiles": "Cc1ccc(N2CC3CCN(C)C3C2)cc1C(=O)NC1(c2ccc3c4c(cccc24)C(=O)N3C)CC1", "note": "(centres unmarked) [Compound P47]", "IC50": "< 40"},
      {"smiles": "Cc1ccc(N2CC(N3CC(F)C3)C2)cc1C(=O)NC1(c2ccc3c4c(cccc24)C(=O)N3C)CC1", "note": "[Compound P54, 5-(3-Fluoro-[1,3'-diazetidinyl]-1'-yl)-2-methyl-N-(1-(1-methyl-2-oxo-1,2-dihydrobenzo[cd]indol-6-yl)cyclopropyl)ben zamide]", "IC50": "40 to 100"},
      {"smiles": "Cc1ccc(N2CC[C@H](N(C)C(C)C)C2)cc1C(=O)NC1(c2ccc3c4c(cccc24)C(=O)N3C)CC1", "note": "[Compound P36]", "IC50": "< 40"},
      {"smiles": "Cc1ccc(N2CCN(CCCS(C)(=O)=O)CC2)cc1C(=O)NC1(c2ccc3c4c(cccc24)C(=O)N3C)CC1", "note": "[Compound P51]", "IC50": "40 to 100"},
      {"smiles": "Cc1ccc(N2CC3(CCN(C)C3)C2)cc1C(=O)NC1(c2ccc3c4c(cccc24)C(=O)N3C)CC1", "note": "[Compound P19]", "IC50": "100 to 1000"}
    ]}
  ]
}
